Measurements from US6444819B1, “Benzylpiperazinyl and piperidinyl ethanone derivatives: dopamine receptor subtype specific ligands” (Neurogen Corporation, priority 1998, dated 2002).

Molecular target: T1, human D4 receptors (Homo sapiens, UniProt P21917)
T1 construct: expressed in transfected cells; host or cells: CHO cells
T1 sequence (P21917 1-419): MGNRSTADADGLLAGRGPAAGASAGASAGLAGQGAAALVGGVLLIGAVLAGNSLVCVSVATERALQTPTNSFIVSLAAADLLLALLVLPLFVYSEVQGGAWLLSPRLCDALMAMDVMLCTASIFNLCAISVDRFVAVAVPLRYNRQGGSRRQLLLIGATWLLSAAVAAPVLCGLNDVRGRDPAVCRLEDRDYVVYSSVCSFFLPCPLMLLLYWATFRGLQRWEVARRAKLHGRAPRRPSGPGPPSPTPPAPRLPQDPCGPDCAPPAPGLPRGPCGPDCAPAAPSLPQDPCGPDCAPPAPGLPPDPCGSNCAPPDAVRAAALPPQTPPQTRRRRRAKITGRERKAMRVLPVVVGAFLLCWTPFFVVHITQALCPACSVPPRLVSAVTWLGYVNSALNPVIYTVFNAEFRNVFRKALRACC
Test: D4 receptor binding assay (3H-YM 09151-2 displacement)
Conditions: CHO cell membranes with cloned human D4 receptor; 0.5 nM 3H-YM 09151-2
Experimental: The cloned membranes are homogenized in 100 volumes (wt/vol) of 0.05 M Tris-HCl buffer at 4° C. and pH 7.4 containing 120 mM NaCl, 1 mM EDTA and 5 mM MgCl2. The samples were centrifuged at 48,000×g then re-suspended and re-homogenized. The final tissue sample is kept frozen until use. The tissue is resuspended 1:20 (wt/vol) in 0.05 M Tris-HCl buffer containing 120 mM NaCl prior to use.
Non-specific binding is defined as that binding found in the presence of 1 mM spiperone; without further additions, nonspecific binding is less than 20% of total binding.

CCCCN(C(=O)CN1CCN(Cc2ccc(Cl)cc2)CC1)c1ccccc1 [Compound 2, N-butyl-2-(4-(4-chlorobenzyl)piperazinyl)-N-phenylethanamide]
Ki: 154 nM
